Experimental data as given in patent US20050282910A1, “Methods of application of chemical compounds having therapeutic activities in treating cancers” (priority 2003, published 2005).
≈ marks a conversion by molar mass, not a printed value. Where two headings read alike, the source gives them in different places.

Assays:
[1] = test system: human leukemia MDR cell line K562/adr; experiment: Reversal of P-glycoprotein-mediated drug resistance by Schisandrin A, Schisandrol A, Schisantherin A, MTT cytotoxicity of anticancer agents; format: cell-based; settings: for IC50: Homo sapiens, K562/Adr, 72 h
Description: Assays were carried out in triplicate against human leukemia MDR cell line K562/adr, human breast cancer MDR cell line MCF7/adr, and human epidermoid carcinoma MDR cell line KBv200.

[2] = molecular target: P-glycoprotein (Homo sapiens, UniProt P08183); experiment: Daunorubicin accumulation in MCF7/adr cells (P-glycoprotein-mediated drug efflux), flow cytometry; format: cell-based; settings: 2 μg/ml daunorubicin; 0, 1, 10, 20, 40, and 80 μg/ml compound; 60 minutes; FIG. 5
Chain of P-glycoprotein (P08183 whole entry): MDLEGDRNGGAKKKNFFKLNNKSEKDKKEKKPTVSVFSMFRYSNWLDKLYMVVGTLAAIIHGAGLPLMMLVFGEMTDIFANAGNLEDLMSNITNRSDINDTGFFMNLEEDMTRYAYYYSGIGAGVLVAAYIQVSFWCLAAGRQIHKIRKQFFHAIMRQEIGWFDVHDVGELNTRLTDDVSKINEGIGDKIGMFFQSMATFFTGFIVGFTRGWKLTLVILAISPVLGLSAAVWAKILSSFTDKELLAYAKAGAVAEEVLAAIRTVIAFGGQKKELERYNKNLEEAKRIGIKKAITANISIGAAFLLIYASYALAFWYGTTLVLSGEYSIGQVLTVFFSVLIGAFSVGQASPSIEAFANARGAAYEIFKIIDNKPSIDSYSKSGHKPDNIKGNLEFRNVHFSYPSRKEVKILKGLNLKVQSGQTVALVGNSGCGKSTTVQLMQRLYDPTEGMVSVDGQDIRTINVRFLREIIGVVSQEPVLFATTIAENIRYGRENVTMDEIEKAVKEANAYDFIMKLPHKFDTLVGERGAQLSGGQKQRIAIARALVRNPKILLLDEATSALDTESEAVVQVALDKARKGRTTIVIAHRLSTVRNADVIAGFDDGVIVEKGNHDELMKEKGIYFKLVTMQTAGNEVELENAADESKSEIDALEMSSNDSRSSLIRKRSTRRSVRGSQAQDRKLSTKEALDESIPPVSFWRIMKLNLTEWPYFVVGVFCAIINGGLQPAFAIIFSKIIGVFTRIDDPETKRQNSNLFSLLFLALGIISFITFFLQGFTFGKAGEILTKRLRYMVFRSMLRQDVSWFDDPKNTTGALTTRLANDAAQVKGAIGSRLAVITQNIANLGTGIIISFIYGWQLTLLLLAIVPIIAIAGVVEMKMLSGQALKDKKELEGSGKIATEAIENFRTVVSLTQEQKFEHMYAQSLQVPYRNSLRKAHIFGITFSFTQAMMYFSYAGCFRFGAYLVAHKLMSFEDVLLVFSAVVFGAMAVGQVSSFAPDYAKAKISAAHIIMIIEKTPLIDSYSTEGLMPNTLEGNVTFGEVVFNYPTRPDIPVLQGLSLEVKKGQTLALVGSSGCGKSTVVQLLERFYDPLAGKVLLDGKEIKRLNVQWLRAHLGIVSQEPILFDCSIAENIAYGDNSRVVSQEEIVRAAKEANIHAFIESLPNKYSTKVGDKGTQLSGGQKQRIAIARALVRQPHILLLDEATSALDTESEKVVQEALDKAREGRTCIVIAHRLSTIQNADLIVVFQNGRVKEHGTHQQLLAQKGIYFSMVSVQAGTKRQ
Description: P-glycoprotein functions as a drug pump that unilaterally pumps the anticancer agents out of MDR cancer cells. Inhibition of P-glycoprotein results in an increase of the intracellular drug concentration within cancer cells. […] Cells were collected at 60 minutes after incubation.

[3] = test system: HL60/adr; experiment: Reversal of MRP1-mediated drug resistance, MTT cytotoxicity of anticancer agents; format: cell-based, human; settings: for IC50: Homo sapiens, HL60/ADR, 72 h
Description: Assays were carried out in triplicate against MDR cancer cell HL60/adr. MTT assays as described previously (X.

[4] = molecular target: T1, MRP1 (Homo sapiens, UniProt P33527); experiment: Daunorubicin accumulation in HL60/adr cells (MRP1-mediated drug efflux), flow cytometry; format: cell-based; settings: 2 μg/ml daunorubicin; 60 minutes; FIG. 7
T1 construct: human cancer cell line HL60/adr, an MDR cell line characterized by MRP1 overexpression; endogenous in cells; host or cells: HL60/adr (human MDR cancer cell line)
T1 sequence (P33527 whole entry): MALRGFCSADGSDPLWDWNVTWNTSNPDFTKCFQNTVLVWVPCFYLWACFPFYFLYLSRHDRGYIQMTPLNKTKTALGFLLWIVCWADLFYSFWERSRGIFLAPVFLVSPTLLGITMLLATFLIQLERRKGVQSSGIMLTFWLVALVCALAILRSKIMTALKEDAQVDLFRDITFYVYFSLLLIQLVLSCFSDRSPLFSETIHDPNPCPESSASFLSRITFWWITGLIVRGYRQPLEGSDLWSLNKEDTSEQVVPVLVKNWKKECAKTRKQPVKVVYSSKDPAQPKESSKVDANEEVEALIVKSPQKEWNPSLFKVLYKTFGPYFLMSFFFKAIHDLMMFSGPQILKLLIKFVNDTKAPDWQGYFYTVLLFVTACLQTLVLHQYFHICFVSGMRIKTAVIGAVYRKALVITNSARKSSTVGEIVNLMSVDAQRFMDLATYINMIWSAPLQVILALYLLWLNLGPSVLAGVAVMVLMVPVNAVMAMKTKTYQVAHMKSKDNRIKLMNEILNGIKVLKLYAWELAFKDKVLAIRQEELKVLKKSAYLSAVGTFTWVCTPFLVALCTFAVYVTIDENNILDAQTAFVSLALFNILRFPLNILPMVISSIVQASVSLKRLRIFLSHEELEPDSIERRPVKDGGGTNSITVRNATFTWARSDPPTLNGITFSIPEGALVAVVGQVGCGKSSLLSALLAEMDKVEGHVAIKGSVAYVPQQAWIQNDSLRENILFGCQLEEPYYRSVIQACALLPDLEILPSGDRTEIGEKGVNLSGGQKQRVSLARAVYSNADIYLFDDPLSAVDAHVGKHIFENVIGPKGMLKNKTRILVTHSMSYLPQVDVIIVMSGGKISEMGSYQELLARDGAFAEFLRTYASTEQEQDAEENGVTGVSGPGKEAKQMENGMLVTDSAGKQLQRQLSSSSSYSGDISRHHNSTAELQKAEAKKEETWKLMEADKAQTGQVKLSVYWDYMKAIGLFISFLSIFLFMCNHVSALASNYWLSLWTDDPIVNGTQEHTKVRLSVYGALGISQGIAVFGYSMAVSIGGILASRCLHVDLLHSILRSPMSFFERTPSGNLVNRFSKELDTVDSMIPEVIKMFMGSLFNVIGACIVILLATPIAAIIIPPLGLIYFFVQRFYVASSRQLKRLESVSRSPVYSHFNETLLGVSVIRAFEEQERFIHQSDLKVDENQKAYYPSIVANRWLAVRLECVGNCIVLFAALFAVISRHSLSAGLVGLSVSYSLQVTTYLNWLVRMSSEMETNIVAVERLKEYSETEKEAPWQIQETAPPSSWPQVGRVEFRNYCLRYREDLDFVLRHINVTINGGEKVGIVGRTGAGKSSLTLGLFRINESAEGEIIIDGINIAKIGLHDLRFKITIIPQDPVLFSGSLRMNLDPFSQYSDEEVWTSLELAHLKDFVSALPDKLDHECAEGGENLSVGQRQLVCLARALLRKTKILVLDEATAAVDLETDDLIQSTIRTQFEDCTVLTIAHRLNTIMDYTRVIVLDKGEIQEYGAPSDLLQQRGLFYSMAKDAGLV
Text: MRP1 functions as a drug pump that unilaterally pumps the anticancer agents out of MDR cancer cells. Inhibition of MRP1 results in an increase of intracellular drug concentration within cancer cells.

[5] = test system: SMMC7721; experiment: Enhancement of anticancer agent-induced apoptosis and necrosis, Anexin V-FITC/PI; format: cell-based, human; settings: SMMC7721; vincristine 0.5 μg/ml, Schisandrin B 20 μg/ml; 48 hours
Description: To illustrate the activities of Schisandrin B or its analogs enhancing the apoptosis of cancer cells induced by an anticancer agent according to the present disclosure, human cancer cell line SMMC7721, a non-drug-resistant hepatic cancer cell line, and MCF7, a non-drug-resistant breast cancer cell line, were selected for use. Assays were carried out in triplicates against SMMC7721 or MCF7. […] Cells were collected and the apoptotic cells and necrotic cell percentages were determined using Anexin V-FITC/PI kit (Sigma, St. Louis, Mo., USA) according to manufacturer's instructions. Alternatively, the apoptotic and necrotic cell percentages were measured using DNA Plus kit (Becton-Dickinson, USA) according to the manufacturer's instructions.

[6] = test system: human breast cancer MDR cell line MCF7/adr
[7] = test system: KBv200; experiment: Reversal of drug resistance by ethanol extracts of Schisandra chinensis fruit, MTT cytotoxicity of anticancer agents
[8] = test system: human breast cancer MDR cell line MCF7/adr; experiment: cells; settings: NCI/ADR-RES, 72 h
[9] = test system: K562/adr; experiment: Reversal of drug resistance by ethanol extracts of Schisandra chinensis fruit, MTT cytotoxicity of anticancer agents; format: cell-based, human
Description: Assays were carried out in triplicate against human MDR cancer cell lines K562/adr, KBv200, and MCF7/adr. […] Alternatively, flow cytometry assays using FACS Calibur equipped with software Cellquest 3.1f (Becton-Dickinson, Holbrook, N.J.) were applied to count the cell numbers in each sample.

[10] = test system: human epidermoid carcinoma MDR cell line KBv200
[11] = test system: MCF7/adr; experiment: Reversal of drug resistance by ethanol extracts of Schisandra chinensis fruit, MTT cytotoxicity of anticancer agents
[12] = test system: human epidermoid carcinoma MDR cell line KBv200; experiment: cells; settings: KBv200, 72 h
[13] = anticancer agent in the presence of Schisandrin A (10 μg/ml), 72 hours
[14] = anticancer agent in the presence of Schisantherin A (10 μg/ml), 72 hours
[15] = read-out: IC50 (ng/ml) −Schisandrin A
[16] = read-out: IC50 (ng/ml) −Schisantherin A

SMILES: COc1cc2c(c(OC)c1OC)-c1c(cc3c(c1OC)OCO3)C[C@H](C)[C@](C)(O)[C@H]2OC(=O)c1ccccc1 [Schisantherin A]
- sensitivity of MDR cancer cell K562/adr to daunorubicin (in words) ([1]; FIG. 3): increase the sensitivity
- accumulation of daunorubicin within MCF7/adr cells (in words) [2]: proportionately correlated with the increment of the concentration
- drug sensitivity of HL60/adr toward the anticancer agents (in words) ([3]; compound 10 μg/ml): enhanced
- daunorubicin accumulation within HL60/adr cells (in words) [4]: increased with the increasing concentration

SMILES: CC[C@]1(O)C[C@H]2CN(CCc3c([nH]c4ccccc34)[C@@](C(=O)OC)(c3cc4c(cc3OC)N(C=O)[C@H]3[C@@](O)(C(=O)OC)[C@H](OC(C)=O)[C@]5(CC)C=CCN6CC[C@]43[C@@H]65)C2)C1 [Vincristine]
- Apoptotic + necrotic (%) [5]: 6.1 ± 0.4%
- IC50 (ng/ml) +Schisandrin A [6, 13]: 8.4 ± 2.3 ng/mL
- IC50 (ng/ml) +Schisantherin A [6, 14]: 24.1 ± 9.2 ng/mL
- RF (reversal folds of drug resistance) ([6]; by Schisandrin A (10 μg/ml)): 59.6
- RF (reversal folds of drug resistance) ([6]; by Schisantherin A (10 μg/ml)): 20.9
- IC50 ([7]; Homo sapiens, KBv200, 72 h, read-out: IC50 (ng/ml) −ethanol extract): 42 ± 14 ng/mL
- RF (reversal folds of drug resistance) ([7]; KBv200, by ethanol extracts (50 μg/ml)): 13.5
- IC50 ([1]; K562/adr, anticancer agent in the absence of Schisandrin A, 72 hours, read-out: IC50 (ng/ml) −Schisandrin A): 612 ± 176 ng/mL
- IC50 ([1]; K562/adr, anticancer agent in the absence of Schisantherin A, 72 hours, read-out: IC50 (ng/ml) −Schisantherin A): 612 ± 158 ng/mL
- IC50 (ng/ml) +Schisandrin A ([1]; K562/adr, anticancer agent in the presence of Schisandrin A (10 μg/ml), 72 hours): 7.3 ± 2.1 ng/mL
- IC50 (ng/ml) +Schisantherin A ([1]; K562/adr, anticancer agent in the presence of Schisantherin A (10 μg/ml), 72 hours): 7.7 ± 2.1 ng/mL
- RF (reversal folds of drug resistance) ([1]; K562/adr, by Schisandrin A (10 μg/ml)): 83.8
- RF (reversal folds of drug resistance) ([1]; K562/adr, by Schisantherin A (10 μg/ml)): 79.5
- IC50 [8, 15]: 501 ± 129 ng/mL (≈ 0.607 µM)
- IC50 [8, 16]: 501 ± 109 ng/mL (≈ 0.607 µM)
- IC50 ([9]; Homo sapiens, anticancer agent in the absence of ethanol extracts, 72 hours, read-out: IC50 (ng/ml) −ethanol extract): 870 ± 230 ng/mL
- IC50 (ng/ml) +ethanol extract ([9]; anticancer agent in the presence of ethanol extracts (50 μg/ml), 72 hours): 110 ± 42 ng/mL
- RF (reversal folds of drug resistance) ([9]; by ethanol extracts (50 μg/ml)): 7.9
- IC50 (ng/ml) +Schisandrin A ([3]; HL60/adr, anticancer agent in the presence of Schisandrin A (10 μg/ml), 72 hours): 3.3 ± 0.9 ng/mL
- IC50 (ng/ml) +Schisandrin B ([3]; HL60/adr, anticancer agent in the presence of Schisandrin B (10 μg/ml), 72 hours): <1 ng/mL
- IC50 (ng/ml) +Schisantherin A ([3]; HL60/adr, anticancer agent in the presence of Schisantherin A (10 μg/ml), 72 hours): 3.9 ± 0.9 ng/mL
- RF (reversal folds of drug resistance) ([3]; HL60/adr, by Schisandrin A (10 μg/ml)): 27.0
- RF (reversal folds of drug resistance) ([3]; HL60/adr, by Schisandrin B (10 μg/ml)): >48
- RF (reversal folds of drug resistance) ([3]; HL60/adr, by Schisantherin A (10 μg/ml)): 22.8
- IC50 (ng/ml) +Schisandrin B ([3]; HL60/adr, vincristine in the presence of Schisandrin B 5 μg/ml, 72 hours): 5 ± 1 ng/mL
- IC50 (ng/ml) +Schisandrin B ([3]; HL60/adr, vincristine in the presence of Schisandrin B 10 μg/ml, 72 hours): 4 ± 2 ng/mL
- IC50 (ng/ml) +Schisandrin B ([3]; HL60/adr, vincristine in the presence of Schisandrin B 20 μg/ml, 72 hours): <1 ng/mL
- IC50 ([3]; HL60/adr, anticancer agent in the absence of Schisandrin A, 72 hours, read-out: IC50 (ng/ml) −Schisandrin A): 89 ± 21 ng/mL
- IC50 ([3]; HL60/adr, anticancer agent in the absence of Schisandrin B, 72 hours, read-out: IC50 (ng/ml) −Schisandrin B): 48 ± 12 ng/mL
- IC50 ([3]; HL60/adr, anticancer agent in the absence of Schisantherin A, 72 hours, read-out: IC50 (ng/ml) −Schisantherin A): 89.1 ± 21 ng/mL
- IC50 ([3]; HL60/adr, vincristine in the absence of Schisandrin B, 72 hours, read-out: IC50 (ng/ml) −Schisandrin B): 42 ± 1 ng/mL
- IC50 (ng/ml) +Schisandrin A [10, 13]: 2.95 ± 0.7 ng/mL
- IC50 (ng/ml) +Schisantherin A [10, 14]: 3.7 ± 0.9 ng/mL
- RF (reversal folds of drug resistance) ([10]; by Schisandrin A (10 μg/ml)): 7.6
- RF (reversal folds of drug resistance) ([10]; by Schisantherin A (10 μg/ml)): 6.1
- IC50 ([11]; Homo sapiens, NCI/ADR-RES, 72 h, read-out: IC50 (ng/ml) −ethanol extract): 490 ± 112 ng/mL
- IC50 (ng/ml) +ethanol extract ([11]; MCF7/adr, anticancer agent in the presence of ethanol extracts (50 μg/ml), 72 hours): 210 ± 32 ng/mL
- RF (reversal folds of drug resistance) ([11]; MCF7/adr, by ethanol extracts (50 μg/ml)): 2.3
- IC50 [12, 15]: 22.5 ± 3.2 ng/mL (≈ 0.0273 µM)
- IC50 [12, 16]: 22.5 ± 5.6 ng/mL (≈ 0.0273 µM)
